# Laboratory results taken from patent US5288720A, “Angiotensin II receptor blocking 2,3,6 substituted quinazolinones” (American Cyanamid Company, priority 1993, dated 1994).
# Test system: ANGIOTENSIN II VASOPRESSOR RESPONSE
# Assay: AII Challenge: blockade of angiotensin II vasopressor response in conscious SHR
# Type: in vivo, rat (Conscious Male Okamoto-Aoki SHR)
# Conditions: SHR n=2
# Outline: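 Percent blockade is derived from the systolic pressure rise in mmHg, taking each rat's own predose response as 100%. Rats were conscious male Okamoto-Aoki SHR, 16-20 weeks, ~330 g, with aortic and caval cannulas under local procaine. Compound went i.v., i.p. or orally, then angiotensin II challenges (0.05 and 0.1 ug/kg i.v.) at 30-300 min.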
# [1] = 3 mg/kg p.o., AII 0.05 mcg/kg IV, 30 min post dose
# [2] = 3 mg/kg p.o., AII 0.05 mcg/kg IV, 60 min post dose
# [3] = 3 mg/kg p.o., AII 0.05 mcg/kg IV, 90 min post dose
# [4] = 3 mg/kg p.o., AII 0.05 mcg/kg IV, 120 min post dose
# [5] = 3 mg/kg p.o., AII 0.05 mcg/kg IV, 180 min post dose
# [6] = 3 mg/kg p.o., AII 0.05 mcg/kg IV, 240 min post dose
# [7] = 3 mg/kg p.o., AII 0.1 mcg/kg IV, 30 min post dose
# [8] = 3 mg/kg p.o., AII 0.1 mcg/kg IV, 60 min post dose
# [9] = 3 mg/kg p.o., AII 0.1 mcg/kg IV, 90 min post dose
# [10] = 3 mg/kg p.o., AII 0.1 mcg/kg IV, 120 min post dose
# [11] = 3 mg/kg p.o., AII 0.1 mcg/kg IV, 180 min post dose
# [12] = 3 mg/kg p.o., AII 0.1 mcg/kg IV, 240 min post dose
# [13] = 10 mg/kg p.o., AII 0.05 mcg/kg IV, 30 min post dose
# [14] = 10 mg/kg p.o., AII 0.05 mcg/kg IV, 60 min post dose
# [15] = 10 mg/kg p.o., AII 0.05 mcg/kg IV, 90 min post dose
# [16] = 10 mg/kg p.o., AII 0.05 mcg/kg IV, 120 min post dose
# [17] = 10 mg/kg p.o., AII 0.05 mcg/kg IV, 180 min post dose
# [18] = 10 mg/kg p.o., AII 0.05 mcg/kg IV, 240 min post dose
# [19] = 10 mg/kg p.o., AII 0.05 mcg/kg IV, 300 min post dose
# [20] = 10 mg/kg p.o., AII 0.1 mcg/kg IV, 30 min post dose
# [21] = 10 mg/kg p.o., AII 0.1 mcg/kg IV, 60 min post dose
# [22] = 10 mg/kg p.o., AII 0.1 mcg/kg IV, 90 min post dose
# [23] = 10 mg/kg p.o., AII 0.1 mcg/kg IV, 120 min post dose
# [24] = 10 mg/kg p.o., AII 0.1 mcg/kg IV, 180 min post dose
# [25] = 10 mg/kg p.o., AII 0.1 mcg/kg IV, 240 min post dose
# [26] = 10 mg/kg p.o., AII 0.1 mcg/kg IV, 300 min post dose
# [27] = 3 mg/kg p.o., AII 0.05 mcg/kg IV, 300 min post dose
# [28] = 3 mg/kg p.o., AII 0.1 mcg/kg IV, 300 min post dose
# [29] = 10 mg/kg i.v., AII 0.05 mcg/kg IV, 30 min post dose
# [30] = 10 mg/kg i.v., AII 0.05 mcg/kg IV, 60 min post dose
# [31] = 10 mg/kg i.v., AII 0.05 mcg/kg IV, 90 min post dose
# [32] = 10 mg/kg i.v., AII 0.05 mcg/kg IV, 120 min post dose
# [33] = 10 mg/kg i.v., AII 0.05 mcg/kg IV, 180 min post dose
# [34] = 10 mg/kg i.v., AII 0.05 mcg/kg IV, 240 min post dose
# [35] = 10 mg/kg i.v., AII 0.05 mcg/kg IV, 300 min post dose
# [36] = 10 mg/kg i.v., AII 0.1 mcg/kg IV, 30 min post dose
# [37] = 10 mg/kg i.v., AII 0.1 mcg/kg IV, 60 min post dose
# [38] = 10 mg/kg i.v., AII 0.1 mcg/kg IV, 90 min post dose
# [39] = 10 mg/kg i.v., AII 0.1 mcg/kg IV, 120 min post dose
# [40] = 10 mg/kg i.v., AII 0.1 mcg/kg IV, 180 min post dose
# [41] = 10 mg/kg i.v., AII 0.1 mcg/kg IV, 240 min post dose
# [42] = 10 mg/kg i.v., AII 0.1 mcg/kg IV, 300 min post dose
structure (smiles),measurement,setting,value
"CCCCc1nc2ccc(C(O)C3CCCN(C)C3=O)cc2c(=O)n1Cc1ccc(-c2ccccc2-c2nn[nH]n2)cc1 (single isomer, unassigned; isomer 2) [Example 38, 2-Butyl-6-hydroxy(1-methyl-2-oxo-3-piperidinyl)methyl-3-[[2'-(1H-tetrazol-5-yl)[1,1'-biphenyl]-4-yl]methyl-4(3H)-quinazolinone isomer 2]",% Inhibition of AII vasopressor response,[1],70%
same,Average Change (systolic blood pressure response to AII),[1],7.5 mmHg
same,% Inhibition of AII vasopressor response,[2],50%
same,Average Change (systolic blood pressure response to AII),[2],12.5 mmHg
same,% Inhibition of AII vasopressor response,[3],46%
same,Average Change (systolic blood pressure response to AII),[3],13.5 mmHg
same,% Inhibition of AII vasopressor response,[4],70%
same,Average Change (systolic blood pressure response to AII),[4],7.5 mmHg
same,% Inhibition of AII vasopressor response,[5],70%
same,Average Change (systolic blood pressure response to AII),[5],7.5 mmHg
same,% Inhibition of AII vasopressor response,[6],40%
same,Average Change (systolic blood pressure response to AII),[6],15 mmHg
same,% Inhibition of AII vasopressor response,[7],57%
same,Average Change (systolic blood pressure response to AII),[7],15 mmHg
same,% Inhibition of AII vasopressor response,[8],20%
same,Average Change (systolic blood pressure response to AII),[8],27.5 mmHg
same,% Inhibition of AII vasopressor response,[9],32%
same,Average Change (systolic blood pressure response to AII),[9],23.5 mmHg
same,% Inhibition of AII vasopressor response,[10],52%
same,Average Change (systolic blood pressure response to AII),[10],16.5 mmHg
same,% Inhibition of AII vasopressor response,[11],28%
same,Average Change (systolic blood pressure response to AII),[11],25 mmHg
same,% Inhibition of AII vasopressor response,[12],16%
same,Average Change (systolic blood pressure response to AII),[12],29 mmHg
same,% Inhibition of AII vasopressor response,[13],50%
same,Average Change (systolic blood pressure response to AII),[13],25 mmHg
same,% Inhibition of AII vasopressor response,[14],40%
same,Average Change (systolic blood pressure response to AII),[14],30 mmHg
same,% Inhibition of AII vasopressor response,[15],25%
same,Average Change (systolic blood pressure response to AII),[15],37.5 mmHg
same,% Inhibition of AII vasopressor response,[16],50%
same,Average Change (systolic blood pressure response to AII),[16],25 mmHg
same,% Inhibition of AII vasopressor response,[17],5%
same,Average Change (systolic blood pressure response to AII),[17],47.5 mmHg
same,% Inhibition of AII vasopressor response,[18],-5%
same,Average Change (systolic blood pressure response to AII),[18],52.5 mmHg
same,% Inhibition of AII vasopressor response,[19],0%
same,Average Change (systolic blood pressure response to AII),[19],50 mmHg
same,% Inhibition of AII vasopressor response,[20],35%
same,Average Change (systolic blood pressure response to AII),[20],37.5 mmHg
same,% Inhibition of AII vasopressor response,[21],39%
same,Average Change (systolic blood pressure response to AII),[21],35 mmHg
same,% Inhibition of AII vasopressor response,[22],35%
same,Average Change (systolic blood pressure response to AII),[22],37.5 mmHg
same,% Inhibition of AII vasopressor response,[23],43%
same,Average Change (systolic blood pressure response to AII),[23],32.5 mmHg
same,% Inhibition of AII vasopressor response,[24],13%
same,Average Change (systolic blood pressure response to AII),[24],50 mmHg
same,% Inhibition of AII vasopressor response,[25],22%
same,Average Change (systolic blood pressure response to AII),[25],45 mmHg
same,% Inhibition of AII vasopressor response,[26],4%
same,Average Change (systolic blood pressure response to AII),[26],55 mmHg
"CCCCc1nc2ccc(C(OC)C3CCCN(C)C3=O)cc2c(=O)n1Cc1ccc(-c2ccccc2-c2nn[nH]n2)cc1 (single isomer, unassigned; isomer 2) [Example 43, 2-Butyl-6-[methoxy(1-methyl-2-oxo-3-piperidinyl)methyl]-3-[[2'-(1H-tetrazol-5-yl)[1,1'-biphenyl]-4-yl]methyl]-4(3H)-quinazoline isomer 2]",% Inhibition of AII vasopressor response,[1],24%
same,Average Change (systolic blood pressure response to AII),[1],32.5 mmHg
same,% Inhibition of AII vasopressor response,[2],47%
same,Average Change (systolic blood pressure response to AII),[2],22.5 mmHg
same,% Inhibition of AII vasopressor response,[3],53%
same,Average Change (systolic blood pressure response to AII),[3],20 mmHg
same,% Inhibition of AII vasopressor response,[4],53%
same,Average Change (systolic blood pressure response to AII),[4],20 mmHg
same,% Inhibition of AII vasopressor response,[5],59%
same,Average Change (systolic blood pressure response to AII),[5],17.5 mmHg
same,% Inhibition of AII vasopressor response,[6],35%
same,Average Change (systolic blood pressure response to AII),[6],27.5 mmHg
same,% Inhibition of AII vasopressor response,[27],6%
same,Average Change (systolic blood pressure response to AII),[27],40 mmHg
same,% Inhibition of AII vasopressor response,[7],19%
same,Average Change (systolic blood pressure response to AII),[7],32.5 mmHg
same,% Inhibition of AII vasopressor response,[8],19%
same,Average Change (systolic blood pressure response to AII),[8],32.5 mmHg
same,% Inhibition of AII vasopressor response,[9],56%
same,Average Change (systolic blood pressure response to AII),[9],17.5 mmHg
same,% Inhibition of AII vasopressor response,[10],44%
same,Average Change (systolic blood pressure response to AII),[10],22.5 mmHg
same,% Inhibition of AII vasopressor response,[11],6%
same,Average Change (systolic blood pressure response to AII),[11],37.5 mmHg
same,% Inhibition of AII vasopressor response,[12],13%
same,Average Change (systolic blood pressure response to AII),[12],35 mmHg
same,% Inhibition of AII vasopressor response,[28],8%
same,Average Change (systolic blood pressure response to AII),[28],37 mmHg
same,% Inhibition of AII vasopressor response,[29],100%
same,Average Change (systolic blood pressure response to AII),[29],0 mmHg
same,% Inhibition of AII vasopressor response,[30],77%
same,Average Change (systolic blood pressure response to AII),[30],7.5 mmHg
same,% Inhibition of AII vasopressor response,[31],69%
same,Average Change (systolic blood pressure response to AII),[31],10 mmHg
same,% Inhibition of AII vasopressor response,[32],69%
same,Average Change (systolic blood pressure response to AII),[32],10 mmHg
same,% Inhibition of AII vasopressor response,[33],58%
same,Average Change (systolic blood pressure response to AII),[33],13.5 mmHg
same,% Inhibition of AII vasopressor response,[34],0%
same,Average Change (systolic blood pressure response to AII),[34],32.5 mmHg
same,% Inhibition of AII vasopressor response,[35],8%
same,Average Change (systolic blood pressure response to AII),[35],30 mmHg
same,% Inhibition of AII vasopressor response,[36],92%
same,Average Change (systolic blood pressure response to AII),[36],2.5 mmHg
same,% Inhibition of AII vasopressor response,[37],84%
same,Average Change (systolic blood pressure response to AII),[37],5 mmHg
same,% Inhibition of AII vasopressor response,[38],84%
same,Average Change (systolic blood pressure response to AII),[38],5 mmHg
same,% Inhibition of AII vasopressor response,[39],68%
same,Average Change (systolic blood pressure response to AII),[39],10 mmHg
same,% Inhibition of AII vasopressor response,[40],44%
same,Average Change (systolic blood pressure response to AII),[40],17.5 mmHg
same,% Inhibition of AII vasopressor response,[41],56%
same,Average Change (systolic blood pressure response to AII),[41],13.5 mmHg
same,% Inhibition of AII vasopressor response,[42],19%
same,Average Change (systolic blood pressure response to AII),[42],25 mmHg
